# Experimental data from US8697697B2, “Pyrazole derivatives as ERK inhibitors” (Kinentia Biosciences LLC, priority 2011, dated 2014).
# Where a name gives a salt, the structure may show the parent alone.
# Columns and labels:
# ERK-2 kinase = ERK-2 kinase (Homo sapiens, UniProt P28482); test: Assay against ERK-2 (33-P ATP, myelin basic protein substrate); assay type: biochemical; settings: non-labeled ATP 1 μM, 22° C.
# Protocol: Compounds of the invention were assayed for ability to inhibit ERK-2 kinase using a 33-P radio-ligand binding assay. 33-P labeled ATP was used as the radio-ligand and myelin basic protein was used as the substrate. A non-labeled ATP concentration of 1 μM was used. Plates were incubated at 22° C. before isolation and radioactivity determination by scintillation counting. The IC50 values (concentration causing a half-maximal inhibition) and Hill coefficients (nH) were determined by non-linear regression analysis of competition curves generated with 10 data points using Hill equation curve fitting.
# human keratinocytes = test: Keratinocyte proliferation assay; assay type: cell-based
# Protocol: Compounds of the Invention were assayed for their ability to inhibit the proliferation of human keratinocytes. Namely, keratinocytes were plated on day zero and allowed to attach. One day later, the cells were washed and then treated with control culture medium with or without the test compound. Cells were harvested and counted on day-2. Value for the time-zero control was determined (mean and standard deviation based on triplicate experiments with n=9 data points). The untreated control value at day 2 was then determined (mean and standard deviation based on triplicate experiments with n=12 data points). All of the values from treated samples were compared to the control values and are expressed as the change from control±the standard deviation based on the three experiments.
# [1] = system: MMP-1 expression in skin fibroblasts; test: MMP-1 expression in skin fibroblasts (Western blot); assay type: cell-based, human
# Protocol: (§1) Fibroblasts were plated on day zero and allowed to attach. One day later, the cells were washed and then treated with control culture medium with or without test compound. Cells were harvested and counted on day-3. The culture medium was then assayed via Western blot analysis to determine expression levels of MMP-1.
# human skin fibroblasts = test: Skin fibroblast proliferation; assay type: cell-based; settings: at higher concentrations
# Protocol: as §1
# Sequence of ERK-2 kinase (P28482 whole entry): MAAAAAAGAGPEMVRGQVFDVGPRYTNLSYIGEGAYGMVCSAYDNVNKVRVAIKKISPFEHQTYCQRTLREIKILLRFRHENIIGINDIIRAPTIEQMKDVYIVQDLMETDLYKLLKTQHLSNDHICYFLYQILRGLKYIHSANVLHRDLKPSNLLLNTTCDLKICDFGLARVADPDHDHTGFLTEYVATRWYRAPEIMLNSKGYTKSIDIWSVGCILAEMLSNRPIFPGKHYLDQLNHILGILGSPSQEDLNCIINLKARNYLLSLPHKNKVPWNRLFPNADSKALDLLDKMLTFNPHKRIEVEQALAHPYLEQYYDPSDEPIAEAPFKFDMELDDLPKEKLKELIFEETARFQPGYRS
structure (smiles),measurement,setting,value
"c1ccc(-c2cn[nH]c2-c2c[nH]c3ncccc23)cc1 [Example 2, 3-[4-Phenyl-2H-pyrazol-3-yl]-1H-pyrrolo[2,3-b]pyridine Hydrochloride]",IC50,ERK-2 kinase,9.86 µM
"c1ccc(CNc2ccc3c(-c4[nH]ncc4-c4ccccc4)c[nH]c3n2)cc1 [Example 4, Benzyl-[3-(4-phenyl-2H-pyrazol-3-yl)-1H-pyrrolo[2,3-b]pyridin-6-yl]amine]",IC50,ERK-2 kinase,11.3 µM
"Clc1cccc(-c2cn[nH]c2-c2c[nH]c3nc(NCc4ccccc4)ccc23)c1 [Example 3, Benzyl-{3-[4-(3-chlorophenyl)-2H-pyrazol-3-yl]-1H-pyrrolo[2,3-b]pyridin-6-yl}amine Dihydrochloride]",IC50,ERK-2 kinase,2.23 µM
"Cl.Clc1cccc(-c2cn[nH]c2-c2c[nH]c3ncccc23)c1 [Example 1, 3-[4-(3-Chlorophenyl)-2H-pyrazol-3-yl]-1H-pyrrolo[2,3-b]pyridine Hydrochloride]",IC50,ERK-2 kinase,1.43 µM
same,GI50,"human keratinocytes; calculated from Table 2 data, read-out: GI50 (inhibition of keratinocyte proliferation)",4.36 µM
same,inhibition at 0.03 µM,"human keratinocytes; test concentration 0.03 μM, cells counted on day-2, change from control",-20%
same,inhibition at 0.15 µM,"human keratinocytes; test concentration 0.15 μM, cells counted on day-2, change from control",-13%
same,inhibition at 0.3 µM,"human keratinocytes; test concentration 0.30 μM, cells counted on day-2, change from control",-6%
same,inhibition at 1.51 µM,"human keratinocytes; test concentration 1.51 μM, cells counted on day-2, change from control",8%
same,inhibition at 3.02 µM,"human keratinocytes; test concentration 3.02 μM, cells counted on day-2, change from control",21%
same,inhibition at 6.04 µM,"human keratinocytes; test concentration 6.04 μM, cells counted on day-2, change from control",72%
same,inhibition at 15.1 µM,"human keratinocytes; test concentration 15.1 μM, cells counted on day-2, change from control",118%
same,MMP-1 expression,"[1]; 5 μg/mL, culture medium, day-3, Western blot",significantly inhibited
same,collagenase (MMP-1) production,"[1]; at higher concentrations, Western blot",significant reduction
same,effect on fibroblast proliferation,human skin fibroblasts,minimal effect
